Source: US8575197B2, “Pyrolinone derivative and pharmaceutical composition comprising the same” (Shionogi & Co., Ltd., priority 2008, dated 2013)
pIC50: −log10 of the molar value.

molecular target: human P2X3 receptor (Homo sapiens (Human), UniProt P56373); assay: P2X3 receptor inhibition, ATP-evoked Fluo-3 calcium fluorescence (FDSS 3000); assay type: cell-based; conditions: C6BU-1 cell transfected with human P2X3 receptor gene; ATP-evoked Fluo-3 fluorescence
Procedure, shortened: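 C6BU-1 cells stably transfected with human P2X3, loaded with 4 μM Fluo-3-AM for 1 h at 37 °C in HEPES buffer pH 7.5 with probenecid. Compound added 5 min before 40 nM ATP solution; fluorescence followed 3 min. IC50 from ratio of peak post-ATP to baseline fluorescence.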

Sequence of human P2X3 receptor (P56373 whole entry): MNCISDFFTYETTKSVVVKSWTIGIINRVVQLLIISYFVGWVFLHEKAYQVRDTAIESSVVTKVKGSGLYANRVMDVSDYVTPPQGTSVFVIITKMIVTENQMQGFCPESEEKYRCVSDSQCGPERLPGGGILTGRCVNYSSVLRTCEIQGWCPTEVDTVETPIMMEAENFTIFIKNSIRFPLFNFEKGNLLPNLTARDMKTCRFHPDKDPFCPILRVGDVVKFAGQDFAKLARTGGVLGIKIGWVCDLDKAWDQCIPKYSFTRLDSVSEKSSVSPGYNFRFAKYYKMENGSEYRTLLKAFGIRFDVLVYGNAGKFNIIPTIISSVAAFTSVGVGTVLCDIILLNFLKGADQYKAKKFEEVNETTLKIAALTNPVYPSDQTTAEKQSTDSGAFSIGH

pIC50	SMILES
8.30	CC(C)(C)c1n[nH]c2c1C(c1cccnc1OCCO)N(c1ccc(-c3ccsc3)cc1)C2=O (centres unmarked) [II-039]
7.15	CSc1ccc(N2C(=O)c3[nH]nc(C(C)(C)C)c3C2c2cccnc2OCCO)cc1 (centres unmarked) [II-040]
7.57	CC(C)(C)c1n[nH]c2c1C(c1cccnc1OCCO)N(c1ccc(-c3ccoc3)cc1)C2=O (centres unmarked) [II-041]
8.00	CC(C)(C)c1n[nH]c2c1C(c1cccnc1OCCO)N(c1ccc(-c3cccs3)cc1)C2=O (centres unmarked) [II-042]
7.77	CC(C)(C)c1n[nH]c2c1C(c1cccnc1OCCO)N(c1ccc(-c3ccco3)cc1)C2=O (centres unmarked) [II-043]
6.24	CC(C)c1n[nH]c2c1C(c1cccnc1OCCO)N(c1ccc(-c3ccon3)cc1)C2=O (centres unmarked) [II-044]
7.80	CC(C)c1n[nH]c2c1C(c1cccnc1OCCO)N(c1ccc(-c3ccsc3)cc1)C2=O (centres unmarked) [II-045]
6.06	Cc1nc(-c2ccc(N3C(=O)c4[nH]nc(C(C)C)c4C3c3cccnc3OCCO)cc2)no1 (centres unmarked) [II-046]
7.96	CC(C)c1n[nH]c2c1C(c1ccccc1OCC(=O)O)N(c1ccc(-c3ccsc3)cc1)C2=O (centres unmarked) [II-047]
7.24	COc1ncccc1C1c2c(C(C)C)n[nH]c2C(=O)N1c1ccc(-c2ccsc2)cc1 (centres unmarked) [II-048]
7.96	CNC(=O)COc1ccccc1C1c2c(C(C)C)n[nH]c2C(=O)N1c1ccc(-c2ccsc2)cc1 (centres unmarked) [II-049]
8.15	CC(C)c1n[nH]c2c1C(c1ccccc1OCC(N)=O)N(c1ccc(-c3ccsc3)cc1)C2=O (centres unmarked) [II-050]
8.30	CC(C)c1n[nH]c2c1C(c1ccccc1OCC(=O)NN)N(c1ccc(-c3ccsc3)cc1)C2=O (centres unmarked) [II-051]
7.48	CC(C)c1n[nH]c2c1C(c1cccnc1OCC(=O)O)N(c1ccc(-c3ccsc3)cc1)C2=O (centres unmarked) [II-052]
7.46	CNC(=O)COc1ncccc1C1c2c(C(C)C)n[nH]c2C(=O)N1c1ccc(-c2ccsc2)cc1 (centres unmarked) [II-053]
7.59	CC(C)c1n[nH]c2c1C(c1cccnc1OCC(N)=O)N(c1ccc(-c3ccsc3)cc1)C2=O (centres unmarked) [II-054]

pIC50	SMILES
6.26	COc1ccc(-c2n[nH]c3c2C(C2CCCCC2)N(c2ccc4[nH]ccc4c2)C3=O)cc1 (centres unmarked) [II-055]
7.77	CCOC(=O)c1ccc(N2C(=O)c3[nH]nc(C(C)(C)C)c3C2c2ccccc2OC)cc1 (centres unmarked) [II-057]
6.31	CC(C)(C)c1n[nH]c2c1C(c1cccc[n+]1[O-])N(c1ccc(-c3ccon3)cc1)C2=O (centres unmarked) [II-058]
7.34	COc1cc(F)ccc1C1c2c(C(C)(C)C)n[nH]c2C(=O)N1c1ccc(-c2ccon2)cc1 (centres unmarked) [II-059]
6.27	COc1cccc(OC)c1C1c2c(C(C)(C)C)n[nH]c2C(=O)N1c1ccc(-c2ccon2)cc1 (centres unmarked) [II-060]
6.78	CC(C)(C)c1n[nH]c2c1C(c1ccccc1OC(F)(F)F)N(c1ccc(-c3ccon3)cc1)C2=O (centres unmarked) [II-061]
6.95	COc1ccc(F)cc1C1c2c(C(C)(C)C)n[nH]c2C(=O)N1c1ccc(-c2ccon2)cc1 (centres unmarked) [II-062]
7.12	COc1ccccc1C1c2c(C3(CO)CCCCC3)n[nH]c2C(=O)N1c1ccc(-c2ccon2)cc1 (centres unmarked) [II-064]
6.82	COc1ccccc1C1c2c(C(C)C)n[nH]c2CN1c1ccc(-c2ccsc2)cc1 (centres unmarked) [II-067]
6.29	COCc1ccccc1C1c2c(C(C)(C)C)n[nH]c2C(=O)N1c1ccc(-c2cc(C)no2)cc1 (centres unmarked) [II-068]
6.38	COCc1ccccc1C1c2c(C(C)(C)C)n[nH]c2C(=O)N1c1ccc(-c2noc(C)n2)cc1 (centres unmarked) [II-069]
6.13	COc1ccccc1C1c2c(C(C)(C)C)n[nH]c2C(=O)N1c1ccc(CN(C)C)cc1 (centres unmarked) [II-072]
6.98	COc1ccccc1C1c2c(CC(C)(C)C)n[nH]c2C(=O)N1c1ccc(-c2ccon2)cc1 (centres unmarked) [II-073]
7.49	CC(C)(C)c1n[nH]c2c1C(c1cccc[n+]1[O-])N(c1ccc(-c3ccsc3)cc1)C2=O (centres unmarked) [II-074]
6.82	CC(C)(C)c1n[nH]c2c1C(c1ccccc1OCC(N)=O)N(c1ccc(-c3ccon3)cc1)C2=O (centres unmarked) [II-075]
7.92	C[S+]([O-])CCOc1ccccc1C1c2c(C(C)(C)C)n[nH]c2C(=O)N1c1ccc(-c2ccsc2)cc1 (centres unmarked) [II-076]
